Data set [1] in a line: Systemic off-target effects: organ histology and organ function. In kind it is in vivo, mice. An excerpt:
FIG. 13. KBU2046 treatment is not associated with systemic off-target effects. […] After 35 days of treatment, the following organs were harvested at necropsy, and stained with H&E (alternative staining methods as indicated): heart, lungs, esophagus, stomach, colon, small intestine, liver (Trichrome staining), kidneys (Trichrome staining), adrenals, bladder, prostate, spleen, pancreas, brain, testes, and bone marrow and peripheral blood (Giemsa staining). Organs were examined for damage using a semi-quantitative histological scoring system (Knodell et al., 1981; herein incorporated by reference in its entirety). […] Changes in the liver observed in control mice were not increased by KBU2046 treatment. […] On day 8 and 14, all critical organs were weighed, and the following parameters measured in blood: cholesterol, triglycerides, alanine aminotransferase (ALT), aspartate aminotransferase (AST), total bilirubin, glucose, phosphorus, total protein, calcium, blood urea nitrogen (BUN), creatinine, albumin, Na, K, Cl, white blood cells (with differential), red blood cells, hemoglobin, platelets.
Orthotopic implantation of human PCa cells and quantification of distant metastasis was performed as described (Pavese et al., 2013; herein incorporated by reference in its entirety). […] Quantification of KBU2046 plasma concentrations was performed by LCMS. […]

Data set [2] has as its system phosphorylated Ser226 on HSP90β in PC3 cells. Description: PhosphoScan LC-MS/MS of BL4176 immunoprecipitate. In kind it is cell-based, human. To be noted: 10 μM, 3 days, then TGFβ. How it is done:
FIG. 16. Identification of the 83 kDa band using a proteomic approach. PC3 cells were pre-treated with 10 μM KBU2046 or vehicle (control) for 3 days, then treated with TGFβ for 1 hr, and the resultant cell lysates were subjected to immunoprecipitation with BL4176 (Kinoview® phospho-motif antibody). Proteins bound in this manner were analyzed using PhosphoScan™ technology. This identified 483 unique phosphopeptide assignments from 306 parent proteins, with a mean false discovery rate of 0.30% (estimated via Sorcerer search of composite human database of forward and reverse protein entries). Only proteins where the average values for treatment and control were each 3 times that of background were considered. Further, it was required that each of the replicate values (used to calculate the average) to be >/=2.5 fold above background. According to these parameters, there were 19 phospho-proteins whose expression decreased in cells treated with KBU2046, compared to control.
Screening for changes in the kinome induced by KBU2046 were evaluated with the Kinoview™ assay system. Proteins pulled down by motif-directed Kinoview™ antibody were identified through PhosphoScan™ technology, using LTQ-Orbitrap LC-MS/MS analysis coupled to a SEQUEST/Sorcerer data analysis suite (Lundgren et al., 2009; herein incorporated by reference in its entirety). […]

Another data set relates to NCI 60 cell line panel. Description: NCI 60 cell line panel screen. The format is cell-based, human. To be noted: initial screening per DTP protocol. An excerpt:
FIG. 8. […] KBU2046 was submitted to the Developmental Therapeutics Program (DTP) of the US National Cancer Institute (NCI), underwent initial screening across the NCI 60 cell line panel per DTP protocol (Shoemaker, 2006; herein incorporated by reference in its entirety), and the resultant COMPARE diagram is depicted.
Additional functional measures of toxicity included a NCI-based screen of the NCI 60-cell line panel (Shoemaker, 2006; herein incorporated by reference in its entirety), expression of estrogen-responsive genes by qRT/PCR (Ding et al., 2007; herein incorporated by reference in its entirety), induction of an estrogen-responsive promoter by luciferase assay (Breen et al., 2013; Catherino and Jordan, 1995; herein incorporated by reference in their entireties), and a hematopoietic stem cell 14-day colony formation assay (Bergan et al., 1996; herein incorporated by reference in its entirety). Protein Data Base (PDB) X-ray crystallographic structural data (PDB IDs: IX7R, IX7J) was used to determine what chemical groups of genistein bound to the ER. The migration of individual cells was assessed by time-lapse video microscopy.

On to `O=C1c2ccccc2OCC1c1ccc(F)cc1` (racemic) [KBU2046, 4′-fluoroisoflavanone], for which the “organ damage by histologic examination” value in data set [1] (Balb/c athymic mice, 35 days of treatment) is given as “No organ damage was observed”. The “organ weights and blood chemistry/hematology parameters” value in data set [1] (CD1 mice, single iv 15, 75 or 125 mg/kg, day 8 and 14) is reported as “No abnormal alterations in any of these parameters were observed”. The “decrease in abundance of phosphorylated Ser226 on HSP90β” value in data set [2] was found to be 6.6 fold. In addition, the “cell toxicity in NCI 60 cell line panel” value in the data set on NCI 60 cell line panel was “minimal-to-no cell toxicity”.

The values are drawn from patent publication US10780076B2, “Inhibition of cancer cell motility” (Northwestern University, priority 2014, dated 2020).
